The nature of data set [1]: Toxicity / body weight observation in Ba/F3 allograft mice. It counts as in vivo, mouse. Particulars: Ba/F3 T315I allograft NOD/SCID mice, oral gavage, single agents and combinations. An excerpt: Mice were maintained under specific pathogen-free conditions, and food and water were provided ad libitum. A mouse Ba/F3 cell line that expresses a p210 […] fusion and T315I mutation was implanted subcutaneously (1×10^6 cells per mouse) into the right flank of female 6- to 8-week-old NOD/SCID mice. Mice were monitored daily, weighed up to three times weekly, and caliper measurements began when tumors became visible. Animals were randomly assigned to treatment groups as indicated in FIG. 2 by an algorithm that assigns animals to groups to achieve best case distributions of mean tumor size with lowest possible standard deviation. Tumor volume was calculated by measuring two perpendicular diameters using the following formula: (L×w^2)/2, in which L and w refer to the length and width of the tumor diameter, respectively. When tumors reached an average size of ~100 mm^3, mice were randomized and treated with vehicle, a SOS1 inhibitor of the present disclosure (Compound A), asciminib, ponatinib, Compound A and asciminib, or Compound A and ponatinib by oral gavage at the indicated dose and schedule.

Another data set deals with KCL22-r xenograft. The data set can be described thus: KCL22-r (dasatinib-refractory) xenograft study (FIG. 7). The format is in vivo, mouse. Particulars: dasatinib monotherapy. As for the experimental part:
Mice were maintained under specific pathogen-free conditions, and food and water were provided ad libitum. Female 6- to 8-week-old athymic BALB/c nude (NCr) nu/nu mice were used to inoculate Ph+ CML cell lines. For example, KCL22-s cells (5×10^6) were harvested on the day of use and injected in growth-factor-reduced Matrigel/PBS (50% final concentration in 100 μL). One flank was inoculated subcutaneously per mouse. Mice were monitored daily, weighed twice weekly, and caliper measurements began when tumors became visible. Animals were randomly assigned to treatment groups as indicated in FIG. 1 by an algorithm that assigns animals to groups to achieve best case distributions of mean tumor size with lowest possible standard deviation. Tumor volume was calculated by measuring two perpendicular diameters using the following formula: (L×w^2)/2, in which L and w refer to the length and width of the tumor diameter, respectively. When tumors reached an average size of 100 mm^3, mice were randomized and treated with vehicle (20% Dexolve) or indicated compounds using a daily or twice daily schedule by oral gavage. Results are expressed as mean and […]. […] Combination treatment with dasatinib renders more than 90% complete responses. […]

For the molecule `Cc1ccc(C(=O)Nc2ccc(CN3CCN(C)CC3)c(C(F)(F)F)c2)cc1C#Cc1cnc2cccnn12` [ponatinib], the “toxicity or body weight loss” value in data set [1] is “No apparent toxicity or body weight loss was observed”.

In the case of `Cc1nc(Nc2ncc(C(=O)Nc3c(C)cccc3Cl)s2)cc(N2CCN(CCO)CC2)n1` [dasatinib], in the data set with KCL22-r xenograft, the “response of KCL22-r model to dasatinib” value was “dasatinib-refractory tumor”.

As to `O=C(Nc1ccc(OC(F)(F)Cl)cc1)c1cnc(N2CC[C@@H](O)C2)c(-c2ccn[nH]2)c1` [asciminib], in data set [1], the “toxicity or body weight loss” value is reported as “No apparent toxicity or body weight loss was observed”.

(Values after patent US20260294925A1, “CELL PROLIFERATION MODULATORS AND USES THEREOF” (Kumquat Biosciences Inc., priority 2023, published 2026).)
